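48-hour exposure; five concentrations; linearly interpolated endpoints. TGI marks complete inhibition of growth.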
Legend:
Test in all cases: inhibition of tumour cell growth, NCI panel, 48 h
[1] = tested on: DU-145 prostate
[2] = tested on: HS 578T breast
[3] = tested on: SN12C renal
[4] = tested on: K-562 leukemia
[5] = tested on: M14 melanoma
[6] = tested on: UACC-62 melanoma
[7] = tested on: MOLT-4 leukemia
[8] = tested on: 786-0 renal
[9] = tested on: U251 CNS
[10] = tested on: MALME-3M melanoma
[11] = tested on: SK-OV-3 ovarian
[12] = tested on: SF-295 CNS
[13] = tested on: OVCAR-3 ovarian
[14] = tested on: SNB-75 CNS
[15] = tested on: OVCAR-5 ovarian
[16] = tested on: HCT-15 colon
[17] = tested on: ACHN renal
[18] = tested on: NCI-H226 lung
[19] = tested on: HCT-116 colon
[20] = tested on: CAKI-1 renal
[21] = tested on: PC-3 prostate
[22] = tested on: NCI-H23 lung
[23] = tested on: MDA-MB-231 breast
[24] = tested on: UO-31 renal
[25] = tested on: SK-MEL-28 melanoma
[26] = tested on: IGROV1 ovarian
[27] = tested on: SR leukemia
[28] = tested on: A549 NSCLC
[29] = tested on: A498 renal
[30] = tested on: SK-MEL-2 melanoma
[31] = tested on: HL-60(TB) leukemia
[32] = tested on: KM12 colon
[33] = tested on: BT-549 breast
[34] = tested on: UACC-257 melanoma
[35] = tested on: SF-539 CNS
[36] = tested on: SF-268 CNS
[37] = tested on: NCI-H460 lung
[38] = tested on: OVCAR-4 ovarian
[39] = tested on: SW-620 colon
[40] = tested on: TK-10 renal
[41] = tested on: HT29 colon
[42] = tested on: T-47D breast
[43] = tested on: SK-MEL-5 melanoma
[44] = tested on: OVCAR-8 ovarian
[45] = tested on: HOP-62 NSCLC
[46] = tested on: MDA-MB-435
[47] = tested on: NCI/ADR-RES ovarian
[48] = tested on: CCRF-CEM leukemia
[49] = tested on: HOP-92 NSCLC
[50] = tested on: SNB-19 CNS
[51] = tested on: EKVX NSCLC
[52] = tested on: LOX IMVI melanoma
[53] = tested on: MCF7 breast
[54] = tested on: HCC-2998 colon
[55] = tested on: COLO 205 colon
[56] = tested on: MDA-N
[57] = tested on: NCI-H522 lung
[58] = tested on: RPMI-8226 leukemia

Measured: TGI

CCCNc1[nH]c(C(=O)c2ccccc2)c(N)c1C(=S)Nc1ccccc1
not listed: [58]
> 100 µM: all other assays above

CC1(O)CCC(C(C)(C)O)CC1 (centres undefined)
not listed: [10]
> 100 µM: all other assays above
